Reference: article PMC10508264, “Exploring the antioxidant, antimicrobial, cytotoxic and biothermodynamic properties of novel morpholine derivative bioactive Mn(II), Co(II) and Ni(II) complexes – combined experimental and theoretical measurements towards DNA/BSA/SARS-CoV-2 3CL^Pro” (RSC Medicinal Chemistry, 2023)
Like-named read-outs stand apart in the source and are kept apart here.

How the values were obtained:
Candida albicans = test: Agar disc diffusion, strain I; format: cell-based; design: Inhibition%: concentration or dose not given beside the values; settings: for Diameter of clear zone inhibition: control 6 mm
[1] = Superoxide scavenging assay; settings: for % Inhibition, superoxide: 590 nm; for IC50: read-out: IC50, superoxide
[2] = Shake flask n-octanol/deionized water partition (lipophilicity); format: physicochemical; settings: for pKa: Henderson–Hasselbalch; for Concentration, aqueous layer: deionised water phase; for Concentration, organic layer: n-octanol phase
Description: The lipophilicity of all complexes and free ligands was evaluated by the flask-shaking method through n-octanol/deionized water phase partition.[49–51] The partition coefficients (log Po/w) and distribution coefficients (log Do/w) of all substances were also acquired from molar absorption coefficients, conductivity, and pH measurements.[52–54]
Lipophilicity is an imperative factor in anticancer and antimicrobial properties, particularly the necessity for a relevant hydrophobicity to assist the crossing of the cell membrane. This is also supported for the characterization of a drug because it has a fundamental impact on the pharmacokinetic profile and is associated with its capacity to enter tumor cells through passive diffusion.[139] […] This is probably due to the fact that hydrophobic effects play a crucial role not only in the intramolecular interactions that take place between a medication and its target site, but also in the distribution of a drug within a biosystem, its interaction with rival binding sites, passage across and into membranes, and its interaction with metabolizing enzymes. However, the “accurate” model system for hydrophobic effects is octanol/water. Hydrophobicity (lipophilicity) is associated with the partition coefficient (log P), which is a measure of the ability of the solute to go into two immiscible phases (polar and non-polar environments). Also, it refers to the concentration of unionized species of compounds. Generally, the ability of a drug to penetrate with high permeability into lipid membranes depends on the solubility and partition coefficient of the drug. Furthermore, the partition coefficient is extensively employed in the discovery of new medications, chromatography, physical chemistry, environmental science and other fields. Since lipophilicity is one of the major parameters affecting important biological processes, it can influence drug intake via the absorption, distribution, metabolism, excretion, and toxicity (ADMET) characteristics of the substances.[140] Additionally, the ability of a molecule or drug to passively diffuse across cell membranes has been linked to its lipophilicity, which is a measure of the solubility of the substance in aqueous and lipid-like environments.[141] In general, chemotherapeutic medications often need to have certain solubility in the lipid phase in order to be absorbed by the biofilm. Meanwhile, the intracellular milieu is a water-soluble environment once the drug has entered the cell. The medicine must be water-soluble for it to have any anticancer effects. […] Conversely, the cytotoxic properties of a synthesized complex are not only associated with its DNA/protein binding affinity but may be also influenced by its lipophilicity. Additionally, molecules with higher lipophilicity have increased permeability into cell membranes, which determines a drug's cytotoxicity. […] However, more positive partition coefficient values (log P > 0) correspond to higher lipophilicity, and more negative values (log P < 0) correspond to higher hydrophilicity. Generally, log P is measured between −3 and +10; if […], the substance has an extremely hydrophilic character, and if log P > +10, the substance has an extremely hydrophobic character. In addition, the aromatic ligands get larger in size and become more hydrophobic. […] The present complexes (1–3) have higher values of log P and log D compared to the free ligand (Table 11). However, when log P > ±2, the drug will be harder to excrete from the body due to its high lipophilic character, which also creates toxicity due to accumulation. […] (Table 11). […] The observed results are also well correlated with cytotoxic properties. Moreover, in an equilibrium two-component system, the partition coefficient (log P) reflects the ratio of neutral solute concentrations in the organic and aqueous phases. As a result, log P expresses the inherent lipophilicity of a compound in the absence of dissociation or ionization. […]

Staphylococcus Aureus = test: Agar disc diffusion, strain F; format: cell-based; design: Inhibition%: concentration or dose not given beside the values; settings: for Diameter of clear zone inhibition: control 6 mm
[3] = n-octanol/deionised water, shake flask

| SMILES | Inhibition% (Candida albicans) [%] | Diameter of clear zone inhibition (Candida albicans) [mm] | % Inhibition, superoxide ([1]; 40 µM) [%] | % Inhibition, superoxide ([1]; 80 µM) [%] | % Inhibition, superoxide ([1]; 120 µM) [%] | % Inhibition, superoxide ([1]; 160 µM) [%] | % Inhibition, superoxide ([1]; 200 µM) [%] | % Inhibition, superoxide ([1]; 240 µM) [%] | Concentration, aqueous ions [2] [µM] | Net pH [2] | pKa [2] | Concentration, aqueous layer [2] [µM] | Concentration, organic layer [2] [M] | Log D ([2]; n-octanol/deionised water) | Log P [2, 3] | Inhibition% (Staphylococcus Aureus) [%] | Diameter of clear zone inhibition (Staphylococcus Aureus) [mm] | IC50 [1] [µM] | further results |
| --- | --- | --- | --- | --- | --- | --- | --- | --- | --- | --- | --- | --- | --- | --- | --- | --- | --- | --- | --- |
| [Mn+2].[O-]c1ccccc1N=Cc1ccc(N2CCOCC2)cc1.[O-]c1ccccc1N=Cc1ccc(N2CCOCC2)cc1.c1ccc(-c2ccccn2)nc1 [(1)] | 57 | 14 | 06.85 | 13.32 | 22.56 | 36.63 | 45.42 | 54.12 | 238 | 3.48 | 3.42 | 1600 | 0.0235 | 1.107 | 1.166 | 40 | 10 |  |  |
| [Co+2].[O-]c1ccccc1N=Cc1ccc(N2CCOCC2)cc1.[O-]c1ccccc1N=Cc1ccc(N2CCOCC2)cc1.c1ccc(-c2ccccn2)nc1 [(2)] | 50 | 12 | 07.02 | 11.73 | 25.81 | 43.12 | 54.42 | 62.24 | 56.6 | 4.38 | 4.36 | 12000 | 0.0004 | −1.497 | −1.477 | 45 | 11 | 200 |  |
| [Ni+2].[O-]c1ccccc1N=Cc1ccc(N2CCOCC2)cc1.[O-]c1ccccc1N=Cc1ccc(N2CCOCC2)cc1.c1ccc(-c2ccccn2)nc1 [(3)] | 63 | 16 | 06.27 | 12.17 | 24.31 | 40.01 | 50.78 | 58.83 | 35.7 | 4.76 | 4.75 | 1250 | 0.0185 | 1.158 | 1.170 | 40 | 10 | 200 |  |
| Oc1ccccc1N=Cc1ccc(N2CCOCC2)cc1 [(HL), 2-(4-morpholinobenzylideneamino)phenol] | 40 | 10 | 05.23 | 10.74 | 18.85 | 33.55 | 40.91 | 50.42 | 789 | 3.35 |  | 900 | 0.011 |  |  | 33 | 09 |  | logD at 24 h ([2]; n-octanol/deionised water, pH 7.11): 0.814; pKa ([2]; n-octanol/deionized water (shake flask), pH 3.35, read-out: pKa): 3.08; logP at 24 h ([2]; pH 7.11, n-octanol/deionised water, shake flask): 1.09 |
